The values below come from paper PMC6277434, “Discovery of a potent HMG-CoA reductase degrader that eliminates statin-induced reductase accumulation and lowers cholesterol” (Nature Communications, 2018).

Assay [1] has as its target T1, HMGCR (TM1-8)-GFP (Cricetulus griseus, UniProt P00347).
T1 sequence (P00347 1-346): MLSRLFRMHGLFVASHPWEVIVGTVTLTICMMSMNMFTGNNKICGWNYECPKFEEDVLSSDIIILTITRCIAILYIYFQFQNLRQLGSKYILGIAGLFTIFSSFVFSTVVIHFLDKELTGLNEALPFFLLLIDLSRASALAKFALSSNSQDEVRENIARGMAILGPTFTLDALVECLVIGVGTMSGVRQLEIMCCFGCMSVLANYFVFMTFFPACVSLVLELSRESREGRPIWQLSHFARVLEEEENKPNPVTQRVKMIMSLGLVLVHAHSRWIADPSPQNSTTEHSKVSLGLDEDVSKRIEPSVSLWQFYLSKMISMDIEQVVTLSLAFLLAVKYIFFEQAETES

Assay [2] deals with T1, HMGCR (TM1-8)-GFP. Description: HMGCR (TM1-8)-GFP fluorescent assay (high-content imaging) in CHG cells. The following applies: read-out: Mean (HMGCR (TM1-8)-GFP signal relative to 0 μM = 100).

In turn, `C[C@H](CCC(C)(C)O)C1CCC2C3C(CC[C@@]21C)[C@@]1(C)CC[C@H](O)C(C)(C)C1=C[C@@H]3O` (stereo partly shown) [Compound 56] had a DC50 in assay [1] of 52100 nM. Besides, in assay [2], the remaining activity at 0.156 µM was found to be 88.3%, the remaining activity at 0.313 µM worked out at 94.2%, the remaining activity at 0.625 µM turned out to be 92.2% and the remaining activity at 1.25 µM is 79.4%. In addition, in assay [2], the remaining activity at 2.5 µM was 78.7%, the remaining activity at 5 µM stood at 72.2% and the remaining activity at 10 µM worked out at 69.4%.
On to `CCC(O)(CC)CC[C@@H](C)C1CCC2C3C(CC[C@@]21C)[C@@]1(C)CC[C@H](O)C(C)(C)C1=C[C@@H]3O` (stereo partly shown) [Compound 57], for which, in assay [1], the DC50 stood at 1750 nM. Besides, in assay [2], the remaining activity at 0.156 µM was found to be 96.7%, the remaining activity at 0.313 µM was 90.2%, the remaining activity at 0.625 µM is 75.6% and the remaining activity at 1.25 µM was determined as 53.1%. Further, in assay [2], the remaining activity at 2.5 µM was 36.2%, the remaining activity at 5 µM came out at 26% and the remaining activity at 10 µM came to 23.7%.
In assay [1], `C=CCC(O)(CC=C)CC[C@@H](C)C1CCC2C3C(CC[C@@]21C)[C@@]1(C)CC[C@H](O)C(C)(C)C1=C[C@@H]3O` (stereo partly shown) [Compound 58] showed a DC50 of 4500 nM. Further, in assay [2], the remaining activity at 0.156 µM was 106%, the remaining activity at 0.313 µM is 110%, the remaining activity at 0.625 µM came out at 104% and the remaining activity at 1.25 µM is 92.1%. For the same compound, in assay [2], the remaining activity at 2.5 µM was found to be 68.2%, the remaining activity at 5 µM stood at 43.8% and the remaining activity at 10 µM is 25.3%.
In turn, `CC(O)CC[C@@H](C)C1CCC2C3C(CC[C@@]21C)[C@@]1(C)CC[C@H](O)C(C)(C)C1=C[C@@H]3O` (stereo partly shown) [Compound 63] returned a DC50 in assay [1] of 2960 nM. Moreover, in assay [2], the remaining activity at 0.156 µM turned out to be 100%, the remaining activity at 0.313 µM amounted to 97.9%, the remaining activity at 0.625 µM came out at 86.9% and the remaining activity at 1.25 µM stood at 73.2%. In assay [2], the remaining activity at 2.5 µM is 50.1%, the remaining activity at 5 µM stood at 37.4% and the remaining activity at 10 µM turned out to be 21%.
Consider `CCC(O)CC[C@@H](C)C1CCC2C3C(CC[C@@]21C)[C@@]1(C)CC[C@H](O)C(C)(C)C1=C[C@@H]3O` (stereo partly shown) [Compound 64], for which, in assay [1], the DC50 is 3060 nM. In assay [2], the remaining activity at 0.156 µM turned out to be 100%, the remaining activity at 0.313 µM was found to be 104%, the remaining activity at 0.625 µM stood at 88.2% and the remaining activity at 1.25 µM is 68.2%. Also, in assay [2], the remaining activity at 2.5 µM stood at 52.2%, the remaining activity at 5 µM came to 35.6% and the remaining activity at 10 µM worked out at 27%.
Turning to `C=CCC(O)CC[C@@H](C)C1CCC2C3C(CC[C@@]21C)[C@@]1(C)CC[C@H](O)C(C)(C)C1=C[C@@H]3O` (stereo partly shown) [Compound 65], in assay [1], the DC50 is 2330 nM. In addition, in assay [2], the remaining activity at 0.156 µM was found to be 108%, the remaining activity at 0.313 µM worked out at 103%, the remaining activity at 0.625 µM came to 93.6% and the remaining activity at 1.25 µM was 78.4%. For the same compound, in assay [2], the remaining activity at 2.5 µM is 40.4%, the remaining activity at 5 µM is 22.1% and the remaining activity at 10 µM was determined as 14%.
Compound `COC(=O)CCC[C@@H](C)C1CCC2C3C(CC[C@@]21C)[C@@]1(C)CC[C@H](O)C(C)(C)C1=C[C@@H]3O` (stereo partly shown) [Compound 72] returned a DC50 in assay [1] of 6770 nM. Further, in assay [2], the remaining activity at 0.156 µM worked out at 109%, the remaining activity at 0.313 µM worked out at 104%, the remaining activity at 0.625 µM was determined as 96.6% and the remaining activity at 1.25 µM turned out to be 89.7%. For the same compound, in assay [2], the remaining activity at 2.5 µM stood at 77.5%, the remaining activity at 5 µM amounted to 56.3% and the remaining activity at 10 µM was 40.9%.
Compound `C[C@H](CCCC(=O)O)C1CCC2C3C(CC[C@@]21C)[C@@]1(C)CC[C@H](O)C(C)(C)C1=C[C@@H]3O` (stereo partly shown) [Compound 73] gave a DC50 in assay [1] of 60600 nM. Moreover, in assay [2], the remaining activity at 0.156 µM was determined as 97%, the remaining activity at 0.313 µM amounted to 97.9%, the remaining activity at 0.625 µM is 97.7% and the remaining activity at 1.25 µM was determined as 98.1%. In assay [2], the remaining activity at 2.5 µM worked out at 92.6%, the remaining activity at 5 µM was determined as 87.2% and the remaining activity at 10 µM stood at 81.4%.
Consider `C[C@H](CCCCO)C1CCC2C3C(CC[C@@]21C)[C@@]1(C)CC[C@H](O)C(C)(C)C1=C[C@@H]3O` (stereo partly shown) [Compound 74], for which the DC50 in assay [1] worked out at 4520 nM. Besides, in assay [2], the remaining activity at 0.156 µM amounted to 96.8%, the remaining activity at 0.313 µM came to 94.2%, the remaining activity at 0.625 µM is 92.9% and the remaining activity at 1.25 µM came to 83.2%. Also, in assay [2], the remaining activity at 2.5 µM was 62.6%, the remaining activity at 5 µM amounted to 44.4% and the remaining activity at 10 µM was determined as 33%.
As for `COCCCC[C@@H](C)C1CCC2C3C(CC[C@@]21C)[C@@]1(C)CC[C@H](O)C(C)(C)C1=C[C@@H]3O` (stereo partly shown) [Compound 78], the DC50 in assay [1] was 1850 nM. For the same compound, in assay [2], the remaining activity at 0.156 µM is 105%, the remaining activity at 0.313 µM was determined as 98%, the remaining activity at 0.625 µM was determined as 81.1% and the remaining activity at 1.25 µM was 60.7%. Besides, in assay [2], the remaining activity at 2.5 µM was determined as 36.9%, the remaining activity at 5 µM was 21.4% and the remaining activity at 10 µM turned out to be 15.7%.
Compound `C[C@H](CCCC(C)(C)O)C1CCC2C3C(CC[C@@]21C)[C@@]1(C)CC[C@H](O)C(C)(C)C1=C[C@@H]3O` (stereo partly shown) [Compound 79] displayed a DC50 in assay [1] of 640 nM. In addition, in assay [2], the remaining activity at 0.156 µM was determined as 87.9%, the remaining activity at 0.313 µM is 77.2%, the remaining activity at 0.625 µM turned out to be 59.3% and the remaining activity at 1.25 µM worked out at 38.6%. Besides, in assay [2], the remaining activity at 2.5 µM amounted to 23.5%, the remaining activity at 5 µM worked out at 16.1% and the remaining activity at 10 µM was 12.2%.
`CCC(O)(CC)CCC[C@@H](C)C1CCC2C3C(CC[C@@]21C)[C@@]1(C)CC[C@H](O)C(C)(C)C1=C[C@@H]3O` (stereo partly shown) [Compound 80] gave a DC50 in assay [1] of 550 nM. Further, in assay [2], the remaining activity at 0.156 µM came to 85.3%, the remaining activity at 0.313 µM is 75.8%, the remaining activity at 0.625 µM is 58.1% and the remaining activity at 1.25 µM is 33.7%. For the same compound, in assay [2], the remaining activity at 2.5 µM was 18.3%, the remaining activity at 5 µM is 12.1% and the remaining activity at 10 µM is 10.3%.
Consider `CC(O)CCC[C@@H](C)C1CCC2C3C(CC[C@@]21C)[C@@]1(C)CC[C@H](O)C(C)(C)C1=C[C@@H]3O` (stereo partly shown) [Compound 86], for which the DC50 in assay [1] worked out at 2170 nM. For the same compound, in assay [2], the remaining activity at 0.156 µM turned out to be 96.6%, the remaining activity at 0.313 µM was 88.8%, the remaining activity at 0.625 µM turned out to be 78.7% and the remaining activity at 1.25 µM came to 64.4%. In assay [2], the remaining activity at 2.5 µM is 44.4%, the remaining activity at 5 µM was determined as 28.4% and the remaining activity at 10 µM was determined as 19.7%.
`CCC(O)CCC[C@@H](C)C1CCC2C3C(CC[C@@]21C)[C@@]1(C)CC[C@H](O)C(C)(C)C1=C[C@@H]3O` (stereo partly shown) [Compound 87] had a DC50 in assay [1] of 1080 nM. Besides, in assay [2], the remaining activity at 0.156 µM was 91.3%, the remaining activity at 0.313 µM was 78.3%, the remaining activity at 0.625 µM was 62.1% and the remaining activity at 1.25 µM stood at 43.1%. Further, in assay [2], the remaining activity at 2.5 µM amounted to 26.7%, the remaining activity at 5 µM was 20.1% and the remaining activity at 10 µM was found to be 18.9%.
